Tested on: cysteine cathepsins
Assay: inhibition of probe labeling in living RAW cells by JPM-OEt pretreatment
Type: cell-based, mouse
Conditions: JPM-OEt pre-treatment (50 μM, 1 hr)
Method: RAW cells were cultured in DMEM (GIBCO) supplemented with 10% fetal bovine serum (FBS; GIBCO), 100 units/mL penicillin and 100 μg/mL streptomycin (GIBCO). 4T1 cells (ATCC) were cultured in RPMI (GIBCO) supplemented with 10% fetal bovine serum (FBS; GIBCO), 100 units/mL penicillin and 100 μg/mL streptomycin (GIBCO). All cells were cultured in a 5% CO2 humidified incubator at 37° C. For intact cell labeling, cells were exposed to probe (500× in DMSO) in culture media and incubated for 2 hr at 37° C., unless stated otherwise. Where indicated the cells were preincubated for 1 hr with the inhibitor JPM-OEt (500× in DMSO) or exposed to mouse serum (1 μl probe stock solution in DMSO added to 9 μl serum) for 4 hr before addition to the cells. After labeling, the cells were washed with PBS and resuspended in hypotonic lysis buffer (50 mM PIPES pH 7.4, 10 mM KCl, 5 mM MgCl2, 2 mM EDTA, 4 mM DTT, and 1% NP-40) and put on ice for 15 min, centrifuged at 4° C. for 30 min and supernatants were collected, and protein concentration was determined using a BCA kit (pierce). […] Labeling intensities were quantified using Image J software. […] After 15 min on ice and centrifugation at 4° C. for 30 min the supernatants were collected, and protein concentration was determined using a BCA kit (pierce). […] 4× SDS-sample buffer was added and the protein was denatured for 3 min at 100° C. and analyzed as described above. […]

JPM-OEt
blocking of probe labeling: more than 90%

Reference: patent US12059482B2, “Activity-based probe compounds, compositions, and methods of use” (THE BOARD OF TRUSTEES OF THE LELAND STANFORD JUNIOR …, priority 2016, dated 2024)
